Test results from ChEMBL document CHEMBL4808219, “Exploration of Benzo[b]carbazole-6,11-diones as anticancer agents: Synthesis and studies of hTopoIIα inhibition and apoptotic effects” (Bioorg Med Chem Lett, 2021).
Activity calls are given as the source filed them. The rule behind the calls is not given here.

Tests used:
[1] = biological target: DNA topoisomerase 2-alpha (Homo sapiens) (UniProt P11388); test: Inhibition of human topoisomerase 2alpha assessed as reduction in decatenation of kinetoplast DNA by agarose gel electrophoresis method
Sequence of DNA topoisomerase 2-alpha (Homo sapiens) (P11388 whole entry): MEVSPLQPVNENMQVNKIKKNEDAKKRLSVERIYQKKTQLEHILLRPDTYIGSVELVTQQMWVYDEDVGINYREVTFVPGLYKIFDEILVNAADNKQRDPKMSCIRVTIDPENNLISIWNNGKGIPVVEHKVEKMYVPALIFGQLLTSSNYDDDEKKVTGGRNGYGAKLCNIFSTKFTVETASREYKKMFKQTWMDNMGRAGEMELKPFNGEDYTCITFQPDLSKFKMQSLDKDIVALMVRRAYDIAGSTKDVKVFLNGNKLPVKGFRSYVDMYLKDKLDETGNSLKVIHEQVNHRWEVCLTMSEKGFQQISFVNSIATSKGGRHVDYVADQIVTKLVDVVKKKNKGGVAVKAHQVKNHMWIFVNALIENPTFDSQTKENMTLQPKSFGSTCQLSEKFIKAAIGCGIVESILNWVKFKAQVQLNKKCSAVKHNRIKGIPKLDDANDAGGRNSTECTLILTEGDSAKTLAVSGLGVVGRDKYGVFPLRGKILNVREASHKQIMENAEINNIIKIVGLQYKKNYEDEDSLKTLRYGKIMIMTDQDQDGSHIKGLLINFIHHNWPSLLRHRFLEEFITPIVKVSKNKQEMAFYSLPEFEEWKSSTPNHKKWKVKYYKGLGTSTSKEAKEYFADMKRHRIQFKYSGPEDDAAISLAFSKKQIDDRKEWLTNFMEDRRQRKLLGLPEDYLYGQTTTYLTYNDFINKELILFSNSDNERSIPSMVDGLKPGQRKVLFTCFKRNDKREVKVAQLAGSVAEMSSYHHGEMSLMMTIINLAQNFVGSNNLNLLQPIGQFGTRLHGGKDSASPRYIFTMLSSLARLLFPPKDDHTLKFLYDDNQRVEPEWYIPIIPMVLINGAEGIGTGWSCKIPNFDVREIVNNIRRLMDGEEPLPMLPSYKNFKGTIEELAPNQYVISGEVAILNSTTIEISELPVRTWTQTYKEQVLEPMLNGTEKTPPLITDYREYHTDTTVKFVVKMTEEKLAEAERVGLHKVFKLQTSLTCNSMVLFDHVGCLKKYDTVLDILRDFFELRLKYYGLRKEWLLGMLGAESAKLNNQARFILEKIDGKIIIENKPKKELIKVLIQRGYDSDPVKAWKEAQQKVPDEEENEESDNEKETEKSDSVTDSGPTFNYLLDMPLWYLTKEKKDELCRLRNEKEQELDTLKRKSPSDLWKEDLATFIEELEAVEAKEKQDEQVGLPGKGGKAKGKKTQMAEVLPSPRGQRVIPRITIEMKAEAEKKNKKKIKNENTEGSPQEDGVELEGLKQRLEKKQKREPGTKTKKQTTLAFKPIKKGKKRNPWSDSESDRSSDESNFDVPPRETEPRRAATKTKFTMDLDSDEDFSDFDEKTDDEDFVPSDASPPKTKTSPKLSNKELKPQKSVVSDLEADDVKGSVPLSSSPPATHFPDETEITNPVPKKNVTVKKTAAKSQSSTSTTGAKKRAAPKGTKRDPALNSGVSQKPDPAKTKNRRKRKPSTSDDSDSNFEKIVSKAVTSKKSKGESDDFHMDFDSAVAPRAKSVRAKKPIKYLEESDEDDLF

[2] = tested on: HEK-293T; test: Cytotoxicity against human HEK293T cells assessed as reduction in cell viability incubated for 48 hrs by MTT assay; type: cell-based
[3] = tested on: MDA-MB-231; test: Cytotoxicity against human MDA-MB-231 cells assessed as reduction in cell viability incubated for 48 hrs by MTT assay; type: functional, cell-based
[4] = tested on: MCF7; test: Cytotoxicity against human MCF7 cells assessed as reduction in cell viability incubated for 48 hrs by MTT assay; type: functional, cell-based
[5] = Cytotoxicity against human H357 cells assessed as reduction in cell viability incubated for 48 hrs by MTT assay; type: functional, cell-based
[6] = tested on: MCF-10A; test: Cytotoxicity against human MCF-10A cells; type: cell-based
[7] = tested on: MDA-MB-231; test: Cytotoxicity against human MDA-MB-231 cells assessed as reduction in cell survival by clonogenic assay; type: functional, cell-based
[8] = Homo sapiens, MDA-MB-231, 48 h, read-out: IC50
[9] = Homo sapiens, MCF7, 48 h, read-out: IC50
[10] = Homo sapiens, H357, 48 h, read-out: IC50

SMILES | inhibition [1] | IC50 [2] | IC50 [3, 8] | IC50 [4, 9] | IC50 [5, 10] | IC50 ([3]; mda-mb-231) | IC50 ([4]; mcf7) | IC50 ([5]; h357) | IC50 [6] | IC50 [7]
O=C1c2ccccc2C(=O)c2c1[nH]c1ccc(Cl)cc21 | Active | 6.3 µM | 4.4 µM | 4.5 µM | 4.6 µM |  |  |  |  | 
O=C1c2ccccc2C(=O)c2c1[nH]c1cc(F)c(F)cc21 |  |  |  |  |  | Not Active | Not Active | Not Active |  | 
O=C1c2ccccc2C(=O)c2c1[nH]c1ccc(F)cc21 | Active | 7.5 µM | 4.8 µM | 4.7 µM | 5.6 µM |  |  |  |  | 
O=C1C=C(Nc2ccc(F)cc2)C(=O)c2ccccc21 |  | 5.2 µM | 4.9 µM | 4.1 µM | 3.8 µM |  |  |  |  | 
COc1ccc2[nH]c3c(c2c1)C(=O)c1ccccc1C3=O |  | 10.5 µM | 8.7 µM | 8 µM | 9.6 µM |  |  |  |  | 
COc1cc2[nH]c3c(c2c(OC)c1OC)C(=O)c1c(OC)cccc1C3=O |  |  |  |  |  | Not Active | Not Active | Not Active |  | 
O=C1c2ccccc2C(=O)c2c1[nH]c1cc(Cl)ccc21 | Active | 7.3 µM | 5.5 µM | 4.4 µM | 6.5 µM |  |  |  |  | 
COc1cccc2c1C(=O)c1c([nH]c3ccccc13)C2=O |  | 10.4 µM | 8.9 µM | 9.8 µM | 10.5 µM |  |  |  |  | 
Cc1cc2[nH]c3c(c2cc1C)C(=O)c1ccccc1C3=O |  | 7 µM | 6.3 µM | 4.2 µM | 6.1 µM |  |  |  |  | 
Cc1ccc(NC2=CC(=O)c3ccccc3C2=O)cc1C |  | 7.7 µM | 5.9 µM | 5.3 µM | 6.4 µM |  |  |  |  | 
COc1cc2[nH]c3c(c2cc1OC)C(=O)c1ccccc1C3=O |  | 10.2 µM | 7.4 µM | 8.4 µM | 8.7 µM |  |  |  |  | 
COc1ccc2c3c([nH]c2c1)C(=O)c1ccccc1C3=O |  | 9.8 µM | 7.5 µM | 7 µM | 7.9 µM |  |  |  |  | 
CCC(C)c1ccc(NC2=CC(=O)c3ccccc3C2=O)cc1 (configuration not stated) |  | 5.2 µM | 4.2 µM | 4.2 µM | 4 µM |  |  |  |  | 
COc1cc2[nH]c3c(c2c(OC)c1OC)C(=O)c1c(O)cccc1C3=O |  |  |  |  |  | Not Active | Not Active | Not Active |  | 
O=C1C(Nc2ccccc2)=CC(=O)c2c(O)cccc21 |  | 4.2 µM | 3.7 µM | 3.8 µM | 4.9 µM |  |  |  |  | 
CCC(C)c1ccc2[nH]c3c(c2c1)C(=O)c1ccccc1C3=O (configuration not stated) | Active | 9 µM | 5.4 µM | 6.3 µM | 7.1 µM |  |  |  |  | 
COc1ccc(NC2=CC(=O)c3ccccc3C2=O)cc1OC | Active | 6.3 µM | 6.2 µM | 6.4 µM | 6.2 µM |  |  |  |  | 
COc1cc(NC2=CC(=O)c3ccccc3C2=O)cc(OC)c1OC |  | 8.4 µM | 6.9 µM | 7 µM | 6.8 µM |  |  |  |  | 
COc1cc(NC2=CC(=O)c3c(O)cccc3C2=O)cc(OC)c1OC |  |  |  |  |  | Not Active | Not Active | Not Active |  | 
COc1cccc2c1C(=O)C=C(Nc1ccccc1)C2=O |  | 7.7 µM | 6.2 µM | 6 µM | 6.4 µM |  |  |  |  | 

SMILES | inhibition [1] | IC50 [2] | IC50 [3, 8] | IC50 [4, 9] | IC50 [5, 10] | IC50 ([3]; mda-mb-231) | IC50 ([4]; mcf7) | IC50 ([5]; h357) | IC50 [6] | IC50 [7]
COc1cc([C@@H]2c3cc4c(cc3[C@@H](O[C@@H]3O[C@@H]5CO[C@@H](C)O[C@H]5[C@H](O)[C@H]3O)[C@H]3COC(=O)[C@H]23)OCO4)cc(OC)c1O [ETOPOSIDE] |  | 22 µM | 48 µM | 45 µM | 32 µM |  |  |  | > 120 µM | 42 µM
O=C1C=C(Nc2cnccn2)C(=O)c2ccccc21 |  | 9 µM | 7 µM | 7.2 µM | 8.1 µM |  |  |  |  | 
O=C1C=C(Nc2cccc(Cl)c2)C(=O)c2ccccc21 |  | 5.2 µM | 4.1 µM | 4.2 µM | 4 µM |  |  |  |  | 
O=C1C=C(Nc2ccccc2)C(=O)c2ccccc21 |  | 5.6 µM | 5.3 µM | 4.4 µM | 4.2 µM |  |  |  |  | 
Cn1c2c(c3ccccc31)C(=O)c1ccccc1C2=O | Active | 8.4 µM | 6.5 µM | 5.4 µM | 7.3 µM |  |  |  |  | 
O=C1C=C(Nc2ccc3c(c2)OCO3)C(=O)c2ccccc21 |  | 10.2 µM | 9.4 µM | 9.6 µM | 10.4 µM |  |  |  |  | 
Cc1ccc(NC2=CC(=O)c3ccccc3C2=O)cc1 | Active | 5.6 µM | 5.3 µM | 6.4 µM | 5.2 µM |  |  |  |  | 
COc1cc(NC2=CC(=O)c3c(OC)cccc3C2=O)cc(OC)c1OC |  |  |  |  |  | Not Active | Not Active | Not Active |  | 
Cc1ccc2[nH]c3c(c2c1)C(=O)c1ccccc1C3=O | Active | 8 µM | 4.9 µM | 5.2 µM | 6.1 µM |  |  |  |  | 
COc1ccc(NC2=CC(=O)c3ccccc3C2=O)cc1 |  | 5.5 µM | 4.8 µM | 4.5 µM | 4.6 µM |  |  |  |  | 
O=C1c2ccccc2C(=O)c2c1[nH]c1ccccc21 [BENZOCARBAZOLEDIONE] |  | 5.8 µM | 5.2 µM | 4.5 µM | 5 µM |  |  |  |  | 
COc1cc2[nH]c3c(c2c(OC)c1OC)C(=O)c1ccccc1C3=O | Active | 10.5 µM | 8.1 µM | 8.2 µM | 9.4 µM |  |  |  |  | 
O=C1C=C(Nc2ccc(F)c(F)c2)C(=O)c2ccccc21 |  | 9.4 µM | 7 µM | 7.2 µM | 8.4 µM |  |  |  |  | 
O=C1C=C(Nc2nccs2)C(=O)c2ccccc21 |  | 7.6 µM | 6.3 µM | 6.4 µM | 7.2 µM |  |  |  |  | 
O=C1C=C(NCCCO)C(=O)c2ccccc21 |  | 10.3 µM | 9.8 µM | 9.6 µM | 9.9 µM |  |  |  |  | 
CN1CCN(CCCNC2=CC(=O)c3ccccc3C2=O)CC1 |  | 10.9 µM | 10 µM | 10.4 µM | 10.9 µM |  |  |  |  | 
O=C1C=C(Nc2ccc(Cl)cc2)C(=O)c2ccccc21 |  | 4.9 µM | 3.9 µM | 4.1 µM | 4.8 µM |  |  |  |  | 
O=C1C=C(NCCCN2CCOCC2)C(=O)c2ccccc21 |  | 7.2 µM | 6.4 µM | 6.2 µM | 6.9 µM |  |  |  |  | 
CN(C)CCCNC1=CC(=O)c2ccccc2C1=O |  | 8.1 µM | 6.4 µM | 6.3 µM | 7.3 µM |  |  |  |  | 
